From patent publication US20230218589A1, “COMPOUND FOR PREVENTION OR TREATMENT OF A SKIN CANCER OR SKIN PRECANCER” (UNIQUEST PTY LTD, priority 2020, published 2023)

How the values were obtained:
[1] = target: FKBP12 enzyme (Homo sapiens, UniProt P62942); test: TR-FRET assay, competition for tacrolimus (FK506) binding to FKBP12; conditions: 8-point dilution 0.001 nM to 10 μM, 30 min room temperature
Experimental: The FKBP12 enzyme used in the assay is tagged with a polyhistidine sequence. An anti-6xHis antibody, labelled with a fluorescent donor, F(d), binds the tagged enzyme. The enzyme ligand, FK506 is tagged with a fluorescent acceptor, F(a) and binds the enzyme. […] In the presence of a test inhibitor which competes for FK506, the complex is disrupt& and is no longer in close proximity, resulting in emission at wavelength A due to the F(d). […] The inhibitors were added to the master mix in the assay plate containing the enzyme/antibody/ligand complex, with a final detergent concentration of 0.005%. The reaction was incubated for 30 min at room temperature and then read on a SpectraMax M5 (Molecular Devices) at wavelengths A (615 nm) and B (665 nm). The ratio between light emission (wavelength B/A) is calculated and the blank subtracted values were plotted against the inhibitor concentration in Logio molar and fitted using one site Ki non-linear regression to determine the Kd of the bound test inhibitor.

[2] = test system: HPV38-E6/E7 SCC cells; test: Mouse back cSCC tumour model, tacrolimus diet, intra-tumoural injection; conditions: in vivo
[3] = Single dose pharmacokinetics after topical application to mouse ear; format: in vivo; conditions: single topical 10 μL of 3% solution in propylene glycol to ear, LOQ 3.5 ng/mL
Experimental: The single dose pharmacokinetics of Compound 1 (Cmpd 1) was assessed by topical administration of the compound as a formulation in propylene glycol (3% concentration) applied once per day (QD) to one ear only of C57BL/6 female mice, 8 weeks of age (N=2 or 3 per timepoint; samples taken 1, 6 and 24 h post administration of Compound 1).
Compound Application: Compound 1 (10 μL of a 3% solution in propylene glycol) was applied to mouse ears using a silicone brush. The brush was cleaned with distilled water and ethanol between applications. The vehicle solution was 100% propylene glycol.
Blood processing: Cryovials were prepared containing 10 μL 0.5 M EDTA and labelled appropriately. Cardiac bleed was performed on mice and blood transferred to an Eppendorf tube. Blood (110 μL) was transferred immediately to a cryovial containing EDTA and well mixed to prevent clotting. The cryovial was placed on dry ice and transferred to a −80° C. freezer.
Ear processing: Before taking ears for pharmacokinetics the skin was cleaned with distilled water and dried with cotton balls/swab before doing 2 tape strips (one piece of tape per strip). The whole ear was removed from the mouse. The weight of the whole ear was recorded and placed into an appropriate cryovial which was placed on dry ice then transferred to a −80° C. freezer.
Sample processing: A LC/MS/MS based bioanalytical method was developed for the detection and quantification of Compound 1 in mouse blood and ears. Calibration standards and quality control samples were prepared by adding 2.5 μL of stock solutions of test compound of different concentrations into 25 μL of naïve mouse blood or ear homogenates. Control samples were prepared by spiking 2.5 μL, of water or acetonitrile into 25 μL of naïve mouse blood or ear homogenates. The blood or ear samples were transferred into polypropylene Eppendorf tubes. […] 20-40 μL of the supernatant was analysed by LCMS/MS, using the same instrument, column, Mobile phase A, Mobile phase B, gradient and other parameters as outlined above for the tumour sample processing.

[4] = test system: 5117-RE (spindle cell sarcoma) cells; test: Mouse back 5117-RE tumour model (spindle cell sarcoma, Kaposi sarcoma model); format: in vivo
Experimental: Tacrolimus diet: All customised mice diet was manufactured by Specialty Feeds (Perth, Wash.). Briefly, tacrolimus (MedChemExpress) was mixed with caster sugar and then incorporated into standard mouse diet. […] Food colouring was added to distinguish the drug. During the manufacturing process the pellets were air-dried overnight rather than dried in an oven in order to minimise the amount of heat applied. The final product was sealed in airtight bags and stored at 4° C. protected from light to ensure minimal degradation. Pellet volumes in feed hoppers were kept to a minimum and restocked every 3-4 days for the duration of the experiments.
Compound 1 preparation: Compound 1 (Cmpd 1) was prepared at the beginning of each dosing week as a 1 or 2 mg/mL solution as required in 4% ethanol/0.2% Tween-80/PBS. Compound 1 solution was stored at 4° C. for up to one week.
Mouse back 5117-RE tumour model: Method as per the above section (Mouse back cSCC tumour model), with the following changes; BALBc mice were used, and 5117-RE cells were cultured and passaged for 1 week prior to tumour cell injection in RPMI media (Gibco) supplemented with 10% heat inactivated FBS (Gibco) and 1× Penicillin/Streptomycin/Glutamine (Gibco).
Dissociation of tumour cells for FACS analysis: To release cells from tumours, harvested tissue was cut into small fragments and digested for 60 min at 37° C. in RPMI media containing 2% FBS, 3 mg/mL collagenase D and 5 ug/mL DNase I. Tissues were then gently pressed through a 70 μm cell strainer to create a single-cell suspension. […]
FACS analysis: Stained tumour dissociated cells were then washed twice, resuspended in FACS buffer and Flow cytometric analysis was performed using LSR Fortessa X20 (BD Biosciences) flow cytometers with FACSDiva. software (Becton Dickinson, Sparks, Md., USA). Data were exported and analyzed using FlowJo software (I'reestar Inc., Ashland, Oreg., USA).
Mice were injected sub-cutaneously with 1×10^6 5117-RE (spindle cell sarcoma) cells into the lower back and tumour size was monitored 3 times a week throughout the experiment. […]

[5] = test system: chemically (TPA+DMBA) induced tumour formation; conditions: topical application, mouse model (Jiang et al. 1993); cited from earlier work

FKBP12 enzyme, sequence (P62942 whole entry, species assumed): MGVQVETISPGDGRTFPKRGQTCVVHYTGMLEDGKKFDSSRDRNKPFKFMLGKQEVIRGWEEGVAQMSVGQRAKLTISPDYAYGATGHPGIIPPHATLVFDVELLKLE

Compound | Kd [1] | percentage of CD69+ (activated) CD8 T cells isolated from the tumour [2] | percentage of IFN gamma+ CD8 T cells isolated from the tumour [2] | percentage of TNF alpha+ CD8 T cells isolated from the tumour [2] | tacrolimus dependent-tumour growth compared to the vehicle control [2] | tacrolimus dependent-tumour growth compared to the vehicle control, without CD8 depletion [2] | tumour regression after CD8 depletion [2] | Concentration in blood ([3]; 1 h) | Concentration in blood ([3]; 6 h) | Concentration in blood ([3]; 24 h) | tacrolimus dependent-tumour growth compared to the vehicle control ([4]; BALBc mice, BID IT 40 μL of 2 mg/mL, after 10 days treatment, tacrolimus 150 ppm diet) | percentage of TNF alpha+ CD8 T cells isolated from the tumour ([4]; after 13 days treatment) | percentage of IFN gamma+ CD8 T cells isolated from the tumour ([4]; after 13 days treatment, ex vivo stimulation with CD3/CD28) | reduction of chemically (TPA+DMBA) induced tumour formation [5]
CC[C@@H]1/C=C(\C)[C@@H](O)[C@H](C)C[C@H](OC)[C@H]2O[C@@](O)(C(=O)C(=O)N3CCCC[C@H]3C(=O)O[C@H](/C(C)=C/[C@@H]3CC[C@@H](O)[C@H](OC)C3)[C@H](C)[C@@H](O)CC1=O)[C@H](C)C[C@@H]2OC [Compound 1, 17-Ethyl-1,14,20-trihydroxy-12-[2′-(4″-hydroxy-3″-methoxycyclohexyl)-1′-methylvinyl]-23,25-dimethoxy-13,19,21,27-tetramethyl-11,28-dioxa-4-azatricyclo-[22.3.1.0^4,9]octacos-18-ene-2,3,10,16-tetraone] | 2.8 nM | significantly increased | significantly increased | significantly increased | significantly reduced | significantly reduced | no longer able cause tumour regression | BLQ | BLQ | BLQ | significantly reduced | significantly increased | significantly increased | 
C=CC[C@@H]1/C=C(\C)C[C@H](C)C[C@H](OC)[C@H]2O[C@@](O)(C(=O)C(=O)N3CCCC[C@H]3C(=O)O[C@H](/C(C)=C/[C@@H]3CC[C@@H](O)[C@H](OC)C3)[C@H](C)[C@@H](O)CC1=O)[C@H](C)C[C@@H]2OC [tacrolimus, reference compound] |  |  |  |  |  |  |  |  |  |  |  |  |  | 80%
